Test results from PMC10210398, “Genomic, functional and structural analyses elucidate evolutionary innovation within the sea anemone 8 toxin family” (BMC Biology, 2023).
Entries after “also recorded” stand apart in the source; their conditions may differ. Bridge positions count the residues as written; N and C are the ends. Ends that are not written are not given here.

Tests used:
hKV1.3 = format: cell-based, human
Procedure: CHO cells (ATCC) were transiently transfected with plasmids encoding hKV1.1, hKV1.2, hKV10.1, hKCa3.1, hTRPA1, or hNaV1.7 using Lipofectamine 2000 (Invitrogen, Carlsbad, CA) following the manufacturer’s protocol, then cultured under standard conditions. The cells were co-transfected with a plasmid encoding green fluorescent protein (GFP) at a molar ratio of 10:1 except for hKV1.1, hKV1.2, and hKCa3.1 for which GFP-tagged ion channel vectors were used. Currents were recorded 24–36 h after transfection. […] HEK 293 cells stably expressing the hKv11.1 channel (hERG, hKCNH2 gene, a kind gift from H. Wulff, University of California, Davis, CA) and mKCa1.1 channel (BKCa, hKCNMA1, a kind gift from C. Beeton, Baylor College of Medicine, Houston, TX) were used. hTRPV1 channels were expressed in a stable manner in CHO cells. Transfected cells were washed twice with 2 mL of ECS (see below) and re-plated onto 35-mm polystyrene cell culture dishes (Cellstar, Greiner Bio-One). hKV1.3 currents were recorded from activated peripheral blood mononuclear cells (PBMCs, see below) 3–4 days after activation. Human veinous blood was obtained from anonymised healthy donors. PBMCs were isolated using Histopaque1077 (Sigma-Aldrich Hungary, Budapest, Hungary) density gradient centrifugation. Cells obtained were resuspended in RPMI 1640 medium containing 10% foetal calf serum (Sigma-Aldrich Hungary, Budapest, Hungary), 100 μg/mL penicillin, 100 μg/mL streptomycin, and 2 mM L-glutamine, seeded in a 24-well culture plate at a density of 5–6 × 10^5 cells/mL, and grown in a 5% CO2 incubator at 37 °C for 3–5 days. […]
Conventional whole-cell patch-clamp electrophysiology was used to record ionic currents. […] Data were analysed using Prism 8 (GraphPad, CA, USA) and ClampFit 10.5 software (Molecular Devices Inc., Sunnyvale, CA). […] For hKCa3.1, hTRPA1 and hTRPV1, the reversal potential for K^+ was determined and only those currents were analysed for which the reversal potential fell into the range of the theoretical reversal potential ± 5 mV (− 86.5 ± 5 mV for KCa3.1, and 0 ± 5 mV for hTRPA1 and hTRPV1).

[1] = tested on: hKV11.1 channel (hERG, hKCNH2 gene); assay: Whole-cell patch-clamp, hKV11.1 (hERG) stably expressed in HEK 293 cells; format: cell-based, human
Procedure: (§1) CHO and human embryonic kidney (HEK 293) cells were grown in DMEM-high glucose supplemented with 10% FBS, 2 mM L-glutamine, 100 U/mL penicillin-g, and 100 μg/mL streptomycin (Invitrogen) at 37 °C in a 5% CO2 and 95% air humidified atmosphere. Cells were passaged twice per week following a 5-min incubation in PBS containing 0.2 g/L EDTA (Invitrogen, Carlsbad, CA).
(§2) CHO cells (ATCC) were transiently transfected with plasmids encoding hKV1.1, hKV1.2, hKV10.1, hKCa3.1, hTRPA1, or hNaV1.7 using Lipofectamine 2000 (Invitrogen, Carlsbad, CA) following the manufacturer’s protocol, then cultured under standard conditions. The cells were co-transfected with a plasmid encoding green fluorescent protein (GFP) at a molar ratio of 10:1 except for hKV1.1, hKV1.2, and hKCa3.1 for which GFP-tagged ion channel vectors were used. Currents were recorded 24–36 h after transfection. […] Transfected cells were washed twice with 2 mL of ECS (see below) and re-plated onto 35-mm polystyrene cell culture dishes (Cellstar, Greiner Bio-One). hKV1.3 currents were recorded from activated peripheral blood mononuclear cells (PBMCs, see below) 3–4 days after activation. […]
(§3) Conventional whole-cell patch-clamp electrophysiology was used to record ionic currents. […] Data were analysed using Prism 8 (GraphPad, CA, USA) and ClampFit 10.5 software (Molecular Devices Inc., Sunnyvale, CA). […]

hTRPA1 = assay: Whole-cell patch-clamp, hTRPA1 in transiently transfected CHO cells; format: cell-based, human
Procedure: as §1, §2, §3

Drosophila melanogaster = assay: Injection activity assay in Drosophila melanogaster; format: in vivo; details: for flies dead / flies paralysed: n = 8; for number of flies dead / number of flies paralysed: of 8 flies
Procedure: The activity of the recombinant SA8 peptide in Drosophila melanogaster was assessed using an injection activity assay. The mass of female D. melanogaster used for this experiment ranged from 0.8 to 1.1 mg. Eight D. melanogaster were used as an injection control group and administered 50 nL of water. Five doses of SA8 (0.00005, 0.0005, 0.005, 0.05 and 0.5 µg per fly; 50 nL) were each administered to eight D. melanogaster (n total = 40), with observations of paralysis and mortality made at 2 and 24 h post-injection (Additional file 14: File S6). Dose–response data were analysed as described previously.

Sequence: GYGKGRPGCYNHYDESICGGVIKDEHCKAGRGSRMGKFALKNCQFQCGLC (disulfide 9-47, 18-50, 27-43) [SA8]
- RCF_mean (remaining current fraction, I/I0) (hKV1.3; Kv1.3, 100 nM SA8, mean, n = 3, SEM 0.00826878): 1.03
- effect on current, in words (hKV1.3; hKV1.3, activated PBMCs, 100 nM SA8): no effect; also recorded: did not inhibit
- RCF_mean (remaining current fraction, I/I0) ([1]; Kv11.1, 100 nM SA8, mean, n = 5, SEM 0.0157239): 1.029
- effect on current, in words ([1]; hKV11.1 (hERG), HEK 293, 100 nM SA8): no effect; also recorded: did not inhibit
- RCF_mean (remaining current fraction, I/I0) (hTRPA1; TRPA1, 100 nM SA8, mean, n = 5, SEM 0.0123957): 0.9628
- effect on current, in words (hTRPA1; hTRPA1, CHO cells, activated by 100 µM AITC, 100 nM SA8): no effect; also recorded: did not inhibit
- flies dead (Drosophila melanogaster; 5e-5 µg/fly, 2 h): 0.0%
- flies paralysed (Drosophila melanogaster; 5e-5 µg/fly, 2 h): 0.0%
- number of flies dead (Drosophila melanogaster; 5e-5 µg/fly, 2 h): 0
- number of flies paralysed (Drosophila melanogaster; 5e-5 µg/fly, 2 h): 0
- flies dead (Drosophila melanogaster; 5e-5 µg/fly, 24 h): 0.0%
- flies paralysed (Drosophila melanogaster; 5e-5 µg/fly, 24 h): 0.0%
- number of flies dead (Drosophila melanogaster; 5e-5 µg/fly, 24 h): 0
- number of flies paralysed (Drosophila melanogaster; 5e-5 µg/fly, 24 h): 0
- flies dead (Drosophila melanogaster; 0.0005 µg/fly, 2 h): 0.0%
- flies paralysed (Drosophila melanogaster; 0.0005 µg/fly, 2 h): 0.0%
- number of flies dead (Drosophila melanogaster; 0.0005 µg/fly, 2 h): 0
- number of flies paralysed (Drosophila melanogaster; 0.0005 µg/fly, 2 h): 0
- flies dead (Drosophila melanogaster; 0.0005 µg/fly, 24 h): 0.0%
- flies paralysed (Drosophila melanogaster; 0.0005 µg/fly, 24 h): 0.0%
- number of flies dead (Drosophila melanogaster; 0.0005 µg/fly, 24 h): 0
- number of flies paralysed (Drosophila melanogaster; 0.0005 µg/fly, 24 h): 0
- flies dead (Drosophila melanogaster; 0.005 µg/fly, 2 h): 0.0%
- flies paralysed (Drosophila melanogaster; 0.005 µg/fly, 2 h): 0.0%
- number of flies dead (Drosophila melanogaster; 0.005 µg/fly, 2 h): 0
- number of flies paralysed (Drosophila melanogaster; 0.005 µg/fly, 2 h): 0
- flies dead (Drosophila melanogaster; 0.005 µg/fly, 24 h): 0.0%
- flies paralysed (Drosophila melanogaster; 0.005 µg/fly, 24 h): 0.0%
- number of flies dead (Drosophila melanogaster; 0.005 µg/fly, 24 h): 0
- number of flies paralysed (Drosophila melanogaster; 0.005 µg/fly, 24 h): 0
- flies dead (Drosophila melanogaster; 0.05 µg/fly, 2 h): 0.0%
- flies paralysed (Drosophila melanogaster; 0.05 µg/fly, 2 h): 0.0%
- number of flies dead (Drosophila melanogaster; 0.05 µg/fly, 2 h): 0
- number of flies paralysed (Drosophila melanogaster; 0.05 µg/fly, 2 h): 0
- flies dead (Drosophila melanogaster; 0.05 µg/fly, 24 h): 0.0%
- flies paralysed (Drosophila melanogaster; 0.05 µg/fly, 24 h): 0.0%
- number of flies dead (Drosophila melanogaster; 0.05 µg/fly, 24 h): 0
- number of flies paralysed (Drosophila melanogaster; 0.05 µg/fly, 24 h): 0
- paralysis or death within 24 h, in words (Drosophila melanogaster; 0.5 µg per fly, injected): did not result in paralysis or death
- flies dead (Drosophila melanogaster; 0.5 µg/fly, 2 h): 0.0%
- flies paralysed (Drosophila melanogaster; 0.5 µg/fly, 2 h): 0.0%
- number of flies dead (Drosophila melanogaster; 0.5 µg/fly, 2 h): 0
- number of flies paralysed (Drosophila melanogaster; 0.5 µg/fly, 2 h): 0
- flies dead (Drosophila melanogaster; 0.5 µg/fly, 24 h): 0.0%
- flies paralysed (Drosophila melanogaster; 0.5 µg/fly, 24 h): 0.0%
- number of flies dead (Drosophila melanogaster; 0.5 µg/fly, 24 h): 0
- number of flies paralysed (Drosophila melanogaster; 0.5 µg/fly, 24 h): 0
